Where “and” joins values, the source holds several entries; their conditions need not be identical. Equal values may be shown once. Read-outs that look alike come from different tables or passages of the source.
Experiments:
neutrophil elastase (NE) [1] = test: Active NE in blood (white blood cell pellets) of adults with CF; assay type: in vivo, human; details: for NE, median % reduction relative to baseline: Blood, day 29
Description: (§1) Blood PD samples were collected at screening; predose on days 1, 2, 14, 28, and 29; and at the follow-up visit (day 35). The samples were analyzed at an external service provider to determine the concentrations of active NE, PR3, and CatG in white blood cell pellets using validated enzymatic methods with quantification limits of 87.9 ng/mL for NE and PR3 and 70.3 ng/mL for CatG. The fit-for-purpose methods details were published internally and stored within Insmed’s document repository.
(§2) If a participant experienced an intercurrent event, defined as use of antibiotics during an acute event that could influence NSP levels, the data were not included in the PD analysis. In assessing treatment-emergent adverse events (TEAEs), the “while-on-treatment” strategy was implemented, which encompassed the 28-day period following the final dose of study drug. With this strategy, data collected prior to the occurrence of the intercurrent event, that is, to discontinuation of brensocatib, were included in the analysis.

neutrophil elastase (NE) [2] = test: NE activity in sputum of adults with CF; assay type: in vivo, human
Text: as §2
On the basis of the comparability of PK between participants with and without concomitant use of CFTR modulators, NSP activity (NE, CatG, PR3) in blood and sputum was analyzed using the combined data sets without the CFTR modulator stratum.

cathepsin G (CatG) = test: Active CatG in blood (white blood cell pellets) of adults with CF; assay type: in vivo, human; details: for CatG, median % reduction relative to baseline: Blood, day 29
Description: as §1, §2

neutrophil elastase (NE) [3] = tested on: neutrophil elastase (NE); parameters: method as in PMID 32897034; details: NCFBE, cited from earlier work
[4] = parameters: method as in PMID 35411669, PMID 29484635; details: cited from earlier work
CYP3A = tested on: CYP3A; parameters: method as in PMID 35411669; details: cited from earlier work
[5] = parameters: method as in PMID 40267423; details: NCFBE, ASPEN, cited from earlier work

Cn1c(=O)oc2ccc(-c3ccc(C[C@@H](C#N)NC(=O)[C@@H]4CNCCCO4)cc3)cc21 [Brensocatib]
NE, median % reduction relative to baseline (neutrophil elastase (NE) [1]; 10 mg QD, n = 6): 35.3 (n = 6) %
NE, median % reduction relative to baseline (neutrophil elastase (NE) [1]; 25 mg QD, n = 7): 56.4 (n = 7) %
NE, median % reduction relative to baseline (neutrophil elastase (NE) [1]; 40 mg QD, n = 7): 74.0 (n = 7) %
median percent reduction of NE activity in blood (neutrophil elastase (NE) [1]; over the dose range of 10–40 mg QD): 35–74%
NE, median % reduction relative to baseline (neutrophil elastase (NE) [2]; 10 mg QD, day 29, n = 5): 40.7 (n = 5) %
NE, median % reduction relative to baseline (neutrophil elastase (NE) [2]; 25 mg QD, day 29, n = 3): 77.8 (n = 3) %
NE, median % reduction relative to baseline (neutrophil elastase (NE) [2]; 40 mg QD, day 29, n = 2): 69.9 (n = 2) %
CatG, median % reduction relative to baseline (cathepsin G (CatG); 10 mg QD, n = 6): 75.1 (n = 6) %
CatG, median % reduction relative to baseline (cathepsin G (CatG); 25 mg QD, n = 7): 84.9 (n = 7) %
CatG, median % reduction relative to baseline (cathepsin G (CatG); 40 mg QD, n = 7): 91.3 (n = 7) %
median percent reduction of CatG activity in blood (cathepsin G (CatG); in all doses of brensocatib): 75–91%
Median % reduction of NE activity in the blood (neutrophil elastase (NE) [3]; 10 mg, n = 38): 30.9% and 30.9 (n = 38) %
Median % reduction of NE activity in the blood (neutrophil elastase (NE) [3]; 25 mg, n = 45): 66.5% and 66.5 (n = 45) %
urinary excretion ([4]; at steady state): approximately 20%
elimination half-life ([4]; single doses of 5–120 mg and QD dosing at 10–40 mg): 20 to 30 h
steady state accumulation ([4]; single or multiple dosing): approximately twofold
substrate status (CYP3A; CYP3A): substrate
inhibition or induction of CYP3A (CYP3A): not a clinically meaningful inhibitor or inducer
annualized rate of adjudicated pulmonary exacerbations compared with placebo ([5]; 10 mg or 25 mg QD): significantly reduced
lung function decline (FEV1) over 52 weeks compared with placebo ([5]; 25 mg): significantly lower

From publication PMC12479633, “A Phase IIa, Single-Blind, Placebo-Controlled, Parallel-Group Study to Assess Safety, Tolerability, and Pharmacokinetics/Pharmacodynamics of Brensocatib in Adults with Cystic Fibrosis” (Clinical Pharmacokinetics, 2025)
